Source: the NIST ThermoML archive (doi:10.1016/j.jct.2007.07.005)

Assay: xn = mol fraction of the nth substance listed
Conditions: Fluid (supercritical or subcritical phases), vibrating tube

CCCCCO [pentan-1-ol] + O=C=O
Conditions | mass density [kg/m3]
332.96 K, 13004 kPa, x2 = 0.0816 | 798.35
332.96 K, 13052 kPa, x2 = 0.7274 | 804
332.96 K, 14008 kPa, x2 = 0.7274 | 808.02
332.96 K, 14029 kPa, x2 = 0.0816 | 799.18
332.96 K, 14991 kPa, x2 = 0.0816 | 799.97
332.96 K, 15033 kPa, x2 = 0.7274 | 812.1
332.96 K, 16004 kPa, x2 = 0.0816 | 800.75
332.96 K, 16033 kPa, x2 = 0.7274 | 815.82
332.96 K, 17014 kPa, x2 = 0.0816 | 801.55
332.96 K, 17034 kPa, x2 = 0.7274 | 819.37
332.96 K, 17988 kPa, x2 = 0.7274 | 822.59
332.96 K, 18018 kPa, x2 = 0.0816 | 802.33
332.96 K, 19024 kPa, x2 = 0.0816 | 803.1
332.96 K, 19059 kPa, x2 = 0.7274 | 826.03
332.96 K, 19981 kPa, x2 = 0.0816 | 803.83
332.96 K, 20008 kPa, x2 = 0.7274 | 828.96
332.96 K, 20999 kPa, x2 = 0.7274 | 831.94
332.96 K, 21024 kPa, x2 = 0.0816 | 804.62
332.96 K, 22023 kPa, x2 = 0.7274 | 834.87
332.96 K, 22057 kPa, x2 = 0.0816 | 805.42
332.96 K, 23004 kPa, x2 = 0.7274 | 837.6
332.96 K, 23012 kPa, x2 = 0.0816 | 806.12
332.96 K, 23961 kPa, x2 = 0.7274 | 840.19
332.96 K, 24007 kPa, x2 = 0.0816 | 806.87
332.96 K, 25043 kPa, x2 = 0.0816 | 807.63
333.01 K, 7029 kPa, x2 = 0.1347 | 794.28
333.01 K, 8022 kPa, x2 = 0.1347 | 795.19
333.01 K, 9011 kPa, x2 = 0.1347 | 796.07
333.01 K, 10005 kPa, x2 = 0.1347 | 796.96
333.01 K, 11019 kPa, x2 = 0.1347 | 797.85
333.01 K, 11162 kPa, x2 = 0.6054 | 813.27
333.01 K, 12017 kPa, x2 = 0.1347 | 798.71
333.01 K, 12048 kPa, x2 = 0.6054 | 815.29
333.01 K, 13025 kPa, x2 = 0.1347 | 799.58
333.01 K, 13037 kPa, x2 = 0.6054 | 817.51
333.01 K, 14019 kPa, x2 = 0.1347 | 800.43
333.01 K, 14041 kPa, x2 = 0.6054 | 819.75
333.01 K, 15000 kPa, x2 = 0.1347 | 801.26
333.01 K, 15073 kPa, x2 = 0.6054 | 822.01
333.01 K, 16013 kPa, x2 = 0.1347 | 802.1
333.01 K, 16020 kPa, x2 = 0.6054 | 824.01
333.01 K, 17014 kPa, x2 = 0.1347 | 802.91
333.01 K, 17032 kPa, x2 = 0.6054 | 826.08
333.01 K, 18011 kPa, x2 = 0.1347 | 803.75
333.01 K, 18043 kPa, x2 = 0.6054 | 828.09
333.01 K, 19014 kPa, x2 = 0.1347 | 804.55
333.01 K, 19023 kPa, x2 = 0.6054 | 830
333.01 K, 20028 kPa, x2 = 0.6054 | 831.92
333.01 K, 20029 kPa, x2 = 0.1347 | 805.36
333.01 K, 21007 kPa, x2 = 0.1347 | 806.13
333.01 K, 21051 kPa, x2 = 0.6054 | 833.82
333.01 K, 22021 kPa, x2 = 0.1347 | 806.92
333.01 K, 22023 kPa, x2 = 0.6054 | 835.61
333.01 K, 23026 kPa, x2 = 0.1347 | 807.74
333.01 K, 23040 kPa, x2 = 0.6054 | 837.43
333.01 K, 24005 kPa, x2 = 0.1347 | 808.5
333.01 K, 24066 kPa, x2 = 0.6054 | 839.22
333.01 K, 25039 kPa, x2 = 0.6054 | 840.93
333.01 K, 25049 kPa, x2 = 0.1347 | 809.32
342.76 K, 505 kPa, x2 = 0 | 776.31
342.76 K, 997 kPa, x2 = 0 | 776.77
342.76 K, 1995 kPa, x2 = 0 | 777.69
342.76 K, 3011 kPa, x2 = 0 | 778.59
342.76 K, 4012 kPa, x2 = 0 | 779.47
342.76 K, 5011 kPa, x2 = 0 | 780.34
342.76 K, 6011 kPa, x2 = 0 | 781.22
342.76 K, 7003 kPa, x2 = 0 | 782.03
342.76 K, 8015 kPa, x2 = 0 | 782.91
342.76 K, 9000 kPa, x2 = 0 | 783.73
342.76 K, 10019 kPa, x2 = 0 | 784.58
342.76 K, 11020 kPa, x2 = 0 | 785.4
342.76 K, 12002 kPa, x2 = 0 | 786.2
342.76 K, 13016 kPa, x2 = 0 | 787.02
342.76 K, 14024 kPa, x2 = 0 | 787.81
342.76 K, 15002 kPa, x2 = 0 | 788.59
342.76 K, 16007 kPa, x2 = 0 | 789.36
342.76 K, 17037 kPa, x2 = 0 | 790.15
342.76 K, 17988 kPa, x2 = 0 | 790.87
342.76 K, 19037 kPa, x2 = 0 | 791.66
342.76 K, 20003 kPa, x2 = 0 | 792.38
342.76 K, 21015 kPa, x2 = 0 | 793.14
342.76 K, 22019 kPa, x2 = 0 | 793.88
342.76 K, 23039 kPa, x2 = 0 | 794.62
342.76 K, 24027 kPa, x2 = 0 | 795.36
342.76 K, 25028 kPa, x2 = 0 | 796.1
342.84 K, 15024 kPa, x2 = 0.9757 | 576.16
342.84 K, 16006 kPa, x2 = 0.9757 | 609.2
342.84 K, 17033 kPa, x2 = 0.9757 | 637.26
342.84 K, 18023 kPa, x2 = 0.9757 | 659.89
342.84 K, 19028 kPa, x2 = 0.9757 | 679.62
342.84 K, 20027 kPa, x2 = 0.9757 | 696.58
342.84 K, 21039 kPa, x2 = 0.9757 | 711.98
342.84 K, 22011 kPa, x2 = 0.9757 | 725.1
342.84 K, 23016 kPa, x2 = 0.9757 | 737.54
342.87 K, 8048 kPa, x2 = 0.3624 | 796.26
342.87 K, 9023 kPa, x2 = 0.3624 | 797.49
342.87 K, 10006 kPa, x2 = 0.4651 | 797.4
342.87 K, 10022 kPa, x2 = 0.3624 | 798.77
342.87 K, 11004 kPa, x2 = 0.3624 | 799.97
342.87 K, 11022 kPa, x2 = 0.4651 | 799.24
342.87 K, 11991 kPa, x2 = 0.4651 | 801.02
342.87 K, 12013 kPa, x2 = 0.3624 | 801.19
342.87 K, 13001 kPa, x2 = 0.4651 | 802.82
342.87 K, 13035 kPa, x2 = 0.3624 | 802.37
342.87 K, 13990 kPa, x2 = 0.3624 | 803.48
342.87 K, 13990 kPa, x2 = 0.4651 | 804.53
342.87 K, 14011 kPa, x2 = 0.7274 | 784.26
342.87 K, 14992 kPa, x2 = 0.7274 | 789
342.87 K, 15018 kPa, x2 = 0.3624 | 804.64
342.87 K, 15036 kPa, x2 = 0.4651 | 806.31
342.87 K, 16009 kPa, x2 = 0.3624 | 805.73
342.87 K, 16014 kPa, x2 = 0.4651 | 807.95
342.87 K, 16025 kPa, x2 = 0.7274 | 793.59
342.87 K, 17000 kPa, x2 = 0.3624 | 806.82
342.87 K, 17004 kPa, x2 = 0.4651 | 809.55
342.87 K, 17006 kPa, x2 = 0.7274 | 797.68
342.87 K, 18005 kPa, x2 = 0.7274 | 801.59
342.87 K, 18017 kPa, x2 = 0.4651 | 811.18
342.87 K, 18021 kPa, x2 = 0.3624 | 807.94
342.87 K, 19019 kPa, x2 = 0.4651 | 812.75
342.87 K, 19032 kPa, x2 = 0.7274 | 805.44
342.87 K, 19036 kPa, x2 = 0.3624 | 809.03
342.87 K, 19983 kPa, x2 = 0.7274 | 808.81
342.87 K, 20012 kPa, x2 = 0.3624 | 810.06
